Measured values taken from ChEMBL document CHEMBL3091293, “The synthesis and biodistribution of [(11)C]metformin as a PET probe to study hepatobiliary transport mediated by the multi-drug and toxin extrusion transporter 1 (MATE1) in vivo” (Bioorg Med Chem, 2013).

Columns and labels:
Assay type in all cases: ADME, organism-based; call rule not given here
[1] = system: Mus musculus; assay: Biodistribution in urinary bladder/urine of ddY mouse at 5.6 +/- 2.1 MBq, iv measured per gram of tissue at 60 mins by gamma-ray counting analysis; conditions: in vivo, 1 h
[2] = system: Kidney; assay: Biodistribution in kidney of ddY mouse at 14.6 +/- 2.1 MBq, iv measured per gram of tissue at 14 mins by PET image analysis; conditions: in vivo
[3] = Drug uptake in urinary bladder of ddY mouse at 127 +/- 35 MBq/kg, iv measured up to 4.5 mins by microPET image analysis in presence of MATE1 inhibitor pyrimethamine; conditions: in vivo, 0.075 h
[4] = system: Blood; assay: Metabolic stability in blood of mouse at 5 +/- 2.3 MBq/kg, iv measured until 30 to 60 mins by HPLC analysis in presence of MATE1 inhibitor pyrimethamine; conditions: in vivo
[5] = system: Mus musculus; assay: Biodistribution in stomach wall of ddY mouse at 5.6 +/- 2.1 MBq, iv measured per gram of tissue at 90 mins by gamma-ray counting analysis; conditions: in vivo, 1.5 h
[6] = system: Mus musculus; assay: Biodistribution in small intestine wall of ddY mouse at 5.6 +/- 2.1 MBq, iv measured per gram of tissue at 45 mins by gamma-ray counting analysis; conditions: in vivo, 0.75 h
[7] = system: Mus musculus; assay: Biodistribution in remaining body parts of ddY mouse at 14.6 +/- 2.1 MBq, iv measured per gram of tissue at 27.5 mins by PET image analysis; conditions: in vivo
[8] = system: Mus musculus; assay: Biodistribution in stomach wall of ddY mouse at 5.6 +/- 2.1 MBq, iv measured per gram of tissue at 15 mins by gamma-ray counting analysis; conditions: in vivo, 0.25 h
[9] = system: Spleen; assay: Biodistribution in spleen of ddY mouse at 5.6 +/- 2.1 MBq, iv measured per gram of tissue at 15 mins by gamma-ray counting analysis; conditions: in vivo, 0.25 h
[10] = system: Mus musculus; assay: Biodistribution in remaining body parts of ddY mouse at 5.6 +/- 2.1 MBq, iv measured per gram of tissue at 90 mins by gamma-ray counting analysis; conditions: in vivo, 1.5 h
[11] = system: Mus musculus; assay: Biodistribution in large intestine wall of ddY mouse at 5.6 +/- 2.1 MBq, iv measured per gram of tissue at 15 mins by gamma-ray counting analysis; conditions: in vivo, 0.25 h
[12] = system: Mus musculus; assay: Biodistribution in urinary bladder/urine of ddY mouse at 5.6 +/- 2.1 MBq, iv measured per gram of tissue at 35 mins by gamma-ray counting analysis; conditions: in vivo
[13] = system: Mus musculus; assay: Biodistribution in large intestine wall of ddY mouse at 5.6 +/- 2.1 MBq, iv measured per gram of tissue at 60 mins by gamma-ray counting analysis; conditions: in vivo, 1 h
[14] = system: Mus musculus; assay: Biodistribution in small intestine wall of ddY mouse at 5.6 +/- 2.1 MBq, iv measured per gram of tissue at 15 mins by gamma-ray counting analysis; conditions: in vivo, 0.25 h
[15] = system: Mus musculus; assay: Biodistribution in remaining body parts of ddY mouse at 14.6 +/- 2.1 MBq, iv measured per gram of tissue at 14 mins by PET image analysis; conditions: in vivo
[16] = system: Mus musculus; assay: Biodistribution in large intestine wall of ddY mouse at 5.6 +/- 2.1 MBq, iv measured per gram of tissue at 35 mins by gamma-ray counting analysis; conditions: in vivo
[17] = system: Mus musculus; assay: Biodistribution in heart wall of ddY mouse at 5.6 +/- 2.1 MBq, iv measured per gram of tissue at 90 mins by gamma-ray counting analysis; conditions: in vivo, 1.5 h
[18] = system: Pancreas; assay: Biodistribution in pancreas of ddY mouse at 5.6 +/- 2.1 MBq, iv measured per gram of tissue at 45 mins by gamma-ray counting analysis; conditions: in vivo, 0.75 h
[19] = system: Spleen; assay: Biodistribution in spleen of ddY mouse at 5.6 +/- 2.1 MBq, iv measured per gram of tissue at 35 mins by gamma-ray counting analysis; conditions: in vivo
[20] = system: Mus musculus; assay: Biodistribution in remaining body parts of ddY mouse at 14.6 +/- 2.1 MBq, iv measured per gram of tissue at 5 mins by PET image analysis; conditions: in vivo
[21] = system: Mus musculus; assay: Biodistribution in remaining body parts of ddY mouse at 5.6 +/- 2.1 MBq, iv measured per gram of tissue at 35 mins by gamma-ray counting analysis; conditions: in vivo
[22] = system: Pancreas; assay: Biodistribution in pancreas of ddY mouse at 5.6 +/- 2.1 MBq, iv measured per gram of tissue at 15 mins by gamma-ray counting analysis; conditions: in vivo, 0.25 h
[23] = system: Mus musculus; assay: Biodistribution in urinary bladder of ddY mouse at 14.6 +/- 2.1 MBq, iv measured per gram of tissue at 14 mins by PET image analysis; conditions: in vivo
[24] = system: Thyroid gland; assay: Biodistribution in thyroid of ddY mouse at 5.6 +/- 2.1 MBq, iv measured per gram of tissue at 90 mins by gamma-ray counting analysis; conditions: in vivo, 1.5 h
[25] = system: Liver; assay: Biodistribution in liver of ddY mouse at 5.6 +/- 2.1 MBq, iv measured per gram of tissue at 15 mins by gamma-ray counting analysis; conditions: in vivo, 0.25 h
[26] = system: Mus musculus; assay: Biodistribution in heart wall of ddY mouse at 5.6 +/- 2.1 MBq, iv measured per gram of tissue at 60 mins by gamma-ray counting analysis; conditions: in vivo, 1 h
[27] = system: Pancreas; assay: Biodistribution in pancreas of ddY mouse at 5.6 +/- 2.1 MBq, iv measured per gram of tissue at 30 mins by gamma-ray counting analysis; conditions: in vivo, 0.5 h
[28] = system: Liver; assay: Biodistribution in liver of ddY mouse at 5.6 +/- 2.1 MBq, iv measured per gram of tissue at 30 mins by gamma-ray counting analysis; conditions: in vivo, 0.5 h
[29] = system: Lung; assay: Biodistribution in lung of ddY mouse at 5.6 +/- 2.1 MBq, iv measured per gram of tissue at 60 mins by gamma-ray counting analysis; conditions: in vivo, 1 h
[30] = Metabolic stability in urine of mouse at 5 +/- 2.3 MBq/kg, iv measured until 30 to 60 mins by HPLC analysis in presence of MATE1 inhibitor pyrimethamine; conditions: in vivo
[31] = system: Thyroid gland; assay: Biodistribution in thyroid of ddY mouse at 5.6 +/- 2.1 MBq, iv measured per gram of tissue at 15 mins by gamma-ray counting analysis; conditions: in vivo, 0.25 h
[32] = system: Mus musculus; assay: Biodistribution in heart wall of ddY mouse at 5.6 +/- 2.1 MBq, iv measured per gram of tissue at 45 mins by gamma-ray counting analysis; conditions: in vivo, 0.75 h
[33] = system: Kidney; assay: Biodistribution in kidney of ddY mouse at 14.6 +/- 2.1 MBq, iv measured per gram of tissue at 27.5 mins by PET image analysis; conditions: in vivo
[34] = system: Kidney; assay: Biodistribution in kidney of ddY mouse at 5.6 +/- 2.1 MBq, iv measured per gram of tissue at 90 mins by gamma-ray counting analysis; conditions: in vivo, 1.5 h
[35] = system: Mus musculus; assay: Biodistribution in urinary bladder of ddY mouse at 14.6 +/- 2.1 MBq, iv measured per gram of tissue at 5 mins by PET image analysis; conditions: in vivo
[36] = system: Thyroid gland; assay: Biodistribution in thyroid of ddY mouse at 5.6 +/- 2.1 MBq, iv measured per gram of tissue at 45 mins by gamma-ray counting analysis; conditions: in vivo, 0.75 h
[37] = system: Mus musculus; assay: Biodistribution in heart wall of ddY mouse at 5.6 +/- 2.1 MBq, iv measured per gram of tissue at 15 mins by gamma-ray counting analysis; conditions: in vivo, 0.25 h

## CN([11CH3])C(=N)NC(=N)N
[1]
  Drug uptake: 69.767 %ID
[2]
  Drug uptake: 4.906 %ID
[3]
  Drug uptake: Active
[4]
  Stability: Stable
[5]
  Drug uptake: 0.14 %ID
[6]
  Drug uptake: 2.128 %ID
[7]
  Drug uptake: 28.532 %ID
[8]
  Drug uptake: 0.347 %ID
[9]
  Drug uptake: 0.144 %ID
[10]
  Drug uptake: 36.827 %ID
[11]
  Drug uptake: 0.659 %ID
[12]
  Drug uptake: 74.695 %ID
[13]
  Drug uptake: 0.395 %ID
[14]
  Drug uptake: 3.409 %ID
[15]
  Drug uptake: 36.878 %ID
[16]
  Drug uptake: 0.342 %ID
[17]
  Drug uptake: 0.041 %ID
[18]
  Drug uptake: 0.117 %ID
[19]
  Drug uptake: 0.145 %ID
[20]
  Drug uptake: 51.908 %ID
[21]
  Drug uptake: 20.55 %ID
[22]
  Drug uptake: 0.295 %ID
[23]
  Drug uptake: 56.419 %ID
[24]
  Drug uptake: 0.013 %ID
[25]
  Drug uptake: 3.817 %ID
[26]
  Drug uptake: 0.038 %ID
[27]
  Drug uptake: 0.405 %ID
[28]
  Drug uptake: 2.319 %ID
[29]
  Drug uptake: 0.136 %ID
[30]
  Stability: Stable
[31]
  Drug uptake: 0.008 %ID
[32]
  Drug uptake: 0.029 %ID
[33]
  Drug uptake: 4.394 %ID
[34]
  Drug uptake: 0.236 %ID
[35]
  Drug uptake: 37.19 %ID
[36]
  Drug uptake: 0.002 %ID
[37]
  Drug uptake: 0.102 %ID
